Values after ≈ are worked out from the molar mass of the structure shown. Active and inactive are the calls of the source. The calls are words filed in the database; no cut-off is given here.
Columns and labels:
[1] = molecular target: Tyrosine-protein kinase JAK2 (Homo sapiens, UniProt O60674); assay: Inhibition of recombinant epitope-tagged JAK2 (808 to 1132) (unknown origin) using LPLDKDYYVVREPGQ as substrate by beta-countiing analysis in presence of 33P-gamma-ATP
[2] = Cytotoxicity against human SET2 cells expressing JAK2 assessed as growth inhibition after 72 hrs by Cell Titre-Glo assay; assay type: functional, cell-based; conditions: SET-2, 72 h
A2780 = assay: Cytotoxicity against human A2780 cells expressing […] assessed as growth inhibition after 72 hrs by Cell Titre-Glo assay; assay type: functional, cell-based; conditions: A2780, 72 h
Homo sapiens [3] = species: Homo sapiens; assay: Selectivity ratio of IC50 for recombinant epitope-tagged JAK3 (781 to 1124) (unknown origin) to IC50 for recombinant epitope-tagged JAK2 (808 to 1132) (unknown origin)
[4] = Cytotoxicity against human DERL7 cells expressing JAK1/3 assessed as growth inhibition after 72 hrs by Cell Titre-Glo assay; assay type: functional, cell-based; conditions: DERL7, 72 h
[5] = Solubility of the compound at pH 7; assay type: physicochemical; conditions: buffer
Homo sapiens [6] = species: Homo sapiens; assay: Selectivity ratio of IC50 for recombinant epitope-tagged JAK1 (861 to 1152) (unknown origin) to IC50 for recombinant epitope-tagged JAK2 (808 to 1132) (unknown origin)
[7] = Cmax in Balb nu/nu mouse at 10 mg/kg, po by LC/MS/MS analysis; assay type: ADME, organism-based; parameters: dose 10 mg/kg, route oral; conditions: in vivo
Mus musculus [8] = assay: In vivo inhibition of JAK2 in SCID mouse xenografted with human SET2 cells assessed as inhibition of STAT5 phosphorylation at 50 mg/kg, po up to 6 hrs; assay type: functional, organism-based; parameters: dose 50 mg/kg
[9] = Oral bioavailability in Balb nu/nu mouse at 10 mg/kg by LC/MS/MS analysis; assay type: ADME, organism-based; conditions: in vivo
[10] = molecular target: Tyrosine-protein kinase JAK1 (Homo sapiens) (UniProt P23458); assay: Inhibition of JAK1 in human DERL7 cells assessed as inhibition of STAT5 phosphorylation after 2 hrs by SDS-PAGE analysis in presence of human IL-2; assay type: cell-based
[11] = Volume of distribution at steady state in Balb nu/nu mouse at 10 mg/kg, iv by LC/MS/MS analysis; assay type: ADME, organism-based; parameters: dose 10 mg/kg, route intravenous; conditions: in vivo, read-out: Vdss
Mus musculus [12] = assay: In vivo inhibition of JAK2 in SCID mouse xenografted with human SET2 cells assessed as total STAT5 level at 50 mg/kg, po after 3 hrs; assay type: functional, organism-based; parameters: dose 50 mg/kg
Mus musculus [13] = assay: In vivo inhibition of JAK2 in SCID mouse xenografted with human SET2 cells assessed as total STAT5 level at 50 mg/kg, po up to 6 hrs; assay type: functional, organism-based; parameters: dose 50 mg/kg
Mus musculus [14] = assay: In vivo inhibition of JAK2 in SCID mouse xenografted with human SET2 cells assessed as inhibition of STAT5 phosphorylation at 50 mg/kg, po after 3 hrs; assay type: functional, organism-based; parameters: dose 50 mg/kg
[15] = Half life in Balb nu/nu mouse at 10 mg/kg, po by LC/MS/MS analysis; assay type: ADME, organism-based; parameters: dose 10 mg/kg, route oral; conditions: in vivo
[16] = AUC (infinity) in Balb nu/nu mouse at 10 mg/kg, po by LC/MS/MS analysis; assay type: ADME, organism-based; parameters: dose 10 mg/kg, route oral, time infinity; conditions: plasma
[17] = molecular target: T1, Tyrosine-protein kinase JAK3 (Homo sapiens) (UniProt P52333); assay: Inhibition of JAK3 in human DERL7 cells assessed as inhibition of STAT5 phosphorylation after 2 hrs by SDS-PAGE analysis in presence of human IL-2; assay type: cell-based
T1 sequence (whole entry): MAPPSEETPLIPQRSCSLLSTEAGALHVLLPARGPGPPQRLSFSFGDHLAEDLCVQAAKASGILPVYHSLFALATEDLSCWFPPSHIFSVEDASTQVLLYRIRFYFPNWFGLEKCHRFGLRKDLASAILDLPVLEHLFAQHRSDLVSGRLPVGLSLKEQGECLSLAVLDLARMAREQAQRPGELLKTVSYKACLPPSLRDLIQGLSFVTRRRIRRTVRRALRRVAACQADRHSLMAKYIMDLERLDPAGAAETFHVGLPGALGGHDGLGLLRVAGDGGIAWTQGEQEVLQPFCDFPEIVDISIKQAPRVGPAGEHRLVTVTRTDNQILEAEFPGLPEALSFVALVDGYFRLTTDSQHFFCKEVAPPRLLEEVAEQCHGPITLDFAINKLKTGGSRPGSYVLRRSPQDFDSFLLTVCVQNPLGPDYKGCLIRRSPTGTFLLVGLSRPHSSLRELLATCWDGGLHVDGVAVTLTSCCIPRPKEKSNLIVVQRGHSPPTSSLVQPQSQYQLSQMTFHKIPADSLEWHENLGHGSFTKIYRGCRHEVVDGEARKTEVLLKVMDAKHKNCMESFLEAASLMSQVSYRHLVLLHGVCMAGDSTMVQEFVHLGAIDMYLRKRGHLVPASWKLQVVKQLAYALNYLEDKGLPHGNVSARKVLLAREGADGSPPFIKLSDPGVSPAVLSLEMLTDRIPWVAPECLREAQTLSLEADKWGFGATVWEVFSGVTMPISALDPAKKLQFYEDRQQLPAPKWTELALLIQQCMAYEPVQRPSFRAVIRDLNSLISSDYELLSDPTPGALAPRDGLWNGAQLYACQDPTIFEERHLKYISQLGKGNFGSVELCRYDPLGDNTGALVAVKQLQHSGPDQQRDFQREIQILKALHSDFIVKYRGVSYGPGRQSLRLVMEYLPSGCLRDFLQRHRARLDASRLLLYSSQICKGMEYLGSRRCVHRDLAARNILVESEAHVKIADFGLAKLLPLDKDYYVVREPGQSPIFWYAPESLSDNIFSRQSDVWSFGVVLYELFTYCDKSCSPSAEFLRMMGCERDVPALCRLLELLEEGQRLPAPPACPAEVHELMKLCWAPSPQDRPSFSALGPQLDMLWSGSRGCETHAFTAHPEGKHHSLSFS

Mus musculus [18] = assay: Toxicity in SCID mouse xenografted with human SET2 cells assessed as body weight loss at 50 mg/kg, po bid for 10 days; assay type: organism-based; parameters: dose 50 mg/kg, route oral; conditions: in vivo, 240 h
[19] = AUC (infinity) in Balb nu/nu mouse at 10 mg/kg, iv by LC/MS/MS analysis; assay type: ADME, organism-based; parameters: time infinity, dose 10 mg/kg, route intravenous; conditions: plasma
[20] = Antitumor activity against human SET2 cells xenografted in SCID mouse assessed as tumor growth inhibition at 50 mg/kg, po bid for 10 days relative to control; assay type: functional; conditions: SET-2, 240 h, read-out: TGI
[21] = Clearance in Balb nu/nu mouse at 10 mg/kg, iv by LC/MS/MS analysis; assay type: ADME, organism-based; parameters: dose 10 mg/kg, route intravenous; conditions: in vivo
[22] = Half life in Balb nu/nu mouse at 10 mg/kg, iv by LC/MS/MS analysis; assay type: ADME, organism-based; parameters: dose 10 mg/kg, route intravenous; conditions: in vivo
[23] = Cmax in Balb nu/nu mouse at 10 mg/kg, iv by LC/MS/MS analysis; assay type: ADME, organism-based; parameters: dose 10 mg/kg, route intravenous; conditions: in vivo

Tyrosine-protein kinase JAK2, sequence (O60674 whole entry): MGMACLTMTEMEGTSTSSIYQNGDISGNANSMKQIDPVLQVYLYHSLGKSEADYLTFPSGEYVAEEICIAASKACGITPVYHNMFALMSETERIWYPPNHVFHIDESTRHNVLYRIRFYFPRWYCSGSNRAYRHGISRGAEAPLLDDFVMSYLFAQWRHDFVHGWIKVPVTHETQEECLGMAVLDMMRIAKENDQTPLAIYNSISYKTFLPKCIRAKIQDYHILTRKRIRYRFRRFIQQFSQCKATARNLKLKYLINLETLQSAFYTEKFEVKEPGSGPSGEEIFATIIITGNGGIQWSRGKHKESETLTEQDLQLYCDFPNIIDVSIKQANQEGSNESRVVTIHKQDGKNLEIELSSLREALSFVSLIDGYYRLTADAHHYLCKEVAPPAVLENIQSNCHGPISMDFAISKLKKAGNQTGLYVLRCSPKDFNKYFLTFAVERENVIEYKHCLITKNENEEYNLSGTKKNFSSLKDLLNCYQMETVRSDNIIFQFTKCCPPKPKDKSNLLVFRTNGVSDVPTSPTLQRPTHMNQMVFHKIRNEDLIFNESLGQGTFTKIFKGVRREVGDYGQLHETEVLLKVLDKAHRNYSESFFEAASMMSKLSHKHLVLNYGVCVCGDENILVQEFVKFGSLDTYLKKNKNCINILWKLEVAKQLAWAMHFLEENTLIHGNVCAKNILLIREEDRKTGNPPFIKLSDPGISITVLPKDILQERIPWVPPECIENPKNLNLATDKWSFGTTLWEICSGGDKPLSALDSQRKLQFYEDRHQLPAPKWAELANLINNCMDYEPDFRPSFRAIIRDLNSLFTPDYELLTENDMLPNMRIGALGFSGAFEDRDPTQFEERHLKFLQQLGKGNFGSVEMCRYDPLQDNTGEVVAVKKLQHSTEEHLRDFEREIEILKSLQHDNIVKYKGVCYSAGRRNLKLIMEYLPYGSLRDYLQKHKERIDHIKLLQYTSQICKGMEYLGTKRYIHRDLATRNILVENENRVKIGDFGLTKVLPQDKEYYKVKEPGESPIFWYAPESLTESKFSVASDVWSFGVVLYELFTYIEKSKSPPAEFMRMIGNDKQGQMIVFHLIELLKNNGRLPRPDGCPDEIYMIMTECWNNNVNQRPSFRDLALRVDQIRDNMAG
Tyrosine-protein kinase JAK1 (Homo sapiens), sequence (P23458 whole entry): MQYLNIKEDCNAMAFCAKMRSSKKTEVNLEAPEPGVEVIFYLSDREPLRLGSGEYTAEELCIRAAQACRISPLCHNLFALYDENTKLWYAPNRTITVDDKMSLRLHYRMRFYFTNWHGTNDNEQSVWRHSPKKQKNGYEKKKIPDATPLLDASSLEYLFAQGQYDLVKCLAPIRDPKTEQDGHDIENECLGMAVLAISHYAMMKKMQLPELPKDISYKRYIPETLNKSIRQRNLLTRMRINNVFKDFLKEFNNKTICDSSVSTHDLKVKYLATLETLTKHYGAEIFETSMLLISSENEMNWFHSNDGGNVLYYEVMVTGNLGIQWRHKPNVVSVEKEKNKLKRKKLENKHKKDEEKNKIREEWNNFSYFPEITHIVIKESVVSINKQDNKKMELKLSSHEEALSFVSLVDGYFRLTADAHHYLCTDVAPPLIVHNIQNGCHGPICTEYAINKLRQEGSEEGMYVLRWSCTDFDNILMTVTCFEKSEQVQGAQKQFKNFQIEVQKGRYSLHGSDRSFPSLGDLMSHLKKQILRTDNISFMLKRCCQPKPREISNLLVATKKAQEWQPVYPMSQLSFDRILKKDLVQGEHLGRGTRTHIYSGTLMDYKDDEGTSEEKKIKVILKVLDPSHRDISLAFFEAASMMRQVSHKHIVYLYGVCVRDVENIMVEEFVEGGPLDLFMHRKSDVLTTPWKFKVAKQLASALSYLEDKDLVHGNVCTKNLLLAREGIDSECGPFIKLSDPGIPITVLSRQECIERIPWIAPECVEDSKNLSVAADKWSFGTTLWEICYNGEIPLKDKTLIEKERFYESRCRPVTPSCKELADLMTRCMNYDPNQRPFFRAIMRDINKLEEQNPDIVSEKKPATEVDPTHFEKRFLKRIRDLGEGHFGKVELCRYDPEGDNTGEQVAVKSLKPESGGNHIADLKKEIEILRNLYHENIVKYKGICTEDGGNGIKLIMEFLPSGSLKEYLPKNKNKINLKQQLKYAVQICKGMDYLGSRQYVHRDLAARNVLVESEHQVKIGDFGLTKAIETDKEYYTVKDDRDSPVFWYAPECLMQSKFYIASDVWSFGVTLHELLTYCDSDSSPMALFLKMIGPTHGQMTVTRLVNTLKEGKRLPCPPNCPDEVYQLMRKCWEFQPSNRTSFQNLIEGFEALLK

Question: For `Cc1ccc(Cl)cc1-c1cc(-c2ncnc3[nH]ccc23)[nH]c1C(N)=O`, which IC50 [1] is on record?
Answer: 0.009 µM

Question: And the IC50 [2]?
Answer: 0.46 µM

Question: What about the IC50 (A2780) of the same compound?
Answer: 9.4 µM

Question: And the Ratio IC50 (Homo sapiens [3])?
Answer: 6

Question: And the IC50 [4]?
Answer: 7.3 µM

Question: And the solubility [5]?
Answer: 3 µM (≈ 1.06 µg/mL)

Question: What about the Ratio IC50 (Homo sapiens [6]) of the same compound?
Answer: 5

Question: For `CNc1cc(-c2cc(C(N)=O)n(-c3cc(Cl)ccc3C)c2)ncn1`, which IC50 [1] is on record?
Answer: 0.131 µM

Question: For `Cc1ccc(Cl)cc1-c1cc(-c2cc(N)ncn2)[nH]c1C(N)=O`, which IC50 [1] is on record?
Answer: 0.69 µM

Question: Which IC50 [1] does the source give for `Cc1ccc(Cl)cc1-c1ncc(-c2ccnc(N)n2)[nH]1` here?
Answer: 1.07 µM

Question: For `CCc1ccc(Cl)cc1-n1cc(-c2cc(N)ncn2)cc1C(N)=O`, which Cmax [7] is on record?
Answer: 12.5 µM

Question: And the inhibition (Mus musculus [8])?
Answer: Active

Question: What about the bioavailability [9] of the same compound?
Answer: 50%

Question: And the inhibition [10]?
Answer: Active

Question: What about the Vd [11] of the same compound?
Answer: 0.6 L/kg

Question: What about the inhibition (Mus musculus [12]) of the same compound?
Answer: inactive

Question: And the inhibition (Mus musculus [13])?
Answer: inactive

Question: And the inhibition (Mus musculus [14])?
Answer: Active

Question: And the IC50 [4]?
Answer: 2.73 µM

Question: What about the half-life [15] of the same compound?
Answer: 2.6 h

Question: And the AUC(0-inf) [16]?
Answer: 21 µM·h

Question: And the inhibition [17]?
Answer: Active

Question: And the Activity (Mus musculus [18])?
Answer: Non-toxic

Question: What about the AUC(0-inf) [19] of the same compound?
Answer: 49.2 µM·h

Question: And the inhibition in vivo at 50 mg/kg [20]?
Answer: 41%

Question: What about the solubility [5] of the same compound?
Answer: 128 µM (≈ 43.8 µg/mL)

Question: What about the clearance [21] of the same compound?
Answer: 8.3 mL/min/kg

Question: What about the half-life [22] of the same compound?
Answer: 2 h

Question: And the Cmax [23]?
Answer: 45.9 µM

Question: For `Cc1ccc(Cl)cc1-c1cn(-c2ncnn3cccc23)cc1C(N)=O`, which IC50 [1] is on record?
Answer: 2.91 µM

Question: With `Cc1ccc(Cl)cc1-c1cn(-c2cc(N)ncn2)cc1C(N)=O` as the compound, how does the IC50 [1] read?
Answer: 0.369 µM

Question: Which IC50 [2] does the source give for `CCc1ccc(Cl)cc1-n1cc(-c2ncnc3[nH]ccc23)cc1C(N)=O` here?
Answer: 0.03 µM

Question: What about the IC50 (A2780) of the same compound?
Answer: > 5 µM

Question: What about the IC50 [4] of the same compound?
Answer: 0.02 µM

Question: For `Cc1ccc(Cl)cc1-c1cn(-c2ncnc3[nH]ccc23)cc1C(N)=O`, which IC50 [1] is on record?
Answer: 0.016 µM

Question: And the IC50 [2]?
Answer: 0.5 µM

Question: What about the IC50 (A2780) of the same compound?
Answer: > 10 µM

Question: And the Ratio IC50 (Homo sapiens [3])?
Answer: 14

Question: And the IC50 [4]?
Answer: > 10 µM

Question: What about the solubility [5] of the same compound?
Answer: 2 µM (≈ 0.704 µg/mL)

Question: What about the Ratio IC50 (Homo sapiens [6]) of the same compound?
Answer: 5

Question: With `NC(=O)c1cc(-c2cc(N)ncn2)cn1-c1cc(C(F)(F)F)ccc1Cl` as the compound, how does the IC50 [2] read?
Answer: 1.57 µM

Question: For `Cc1ccc(Cl)cc1-n1cc(-c2ncnc3[nH]ccc23)cc1C(N)=O`, which Cmax [7] is on record?
Answer: 0.69 µM

Question: And the bioavailability [9]?
Answer: 8%

Question: What about the Vd [11] of the same compound?
Answer: 0.7 L/kg

Question: And the IC50 [2]?
Answer: 0.08 µM

Question: And the IC50 (A2780)?
Answer: 7.4 µM

Question: What about the Ratio IC50 (Homo sapiens [3]) of the same compound?
Answer: 5

Question: What about the IC50 [4] of the same compound?
Answer: 0.46 µM

Question: What about the half-life [15] of the same compound?
Answer: 3 h

Question: What about the AUC(0-inf) [16] of the same compound?
Answer: 1.6 µM·h

Question: What about the AUC(0-inf) [19] of the same compound?
Answer: 26.2 µM·h

Question: What about the solubility [5] of the same compound?
Answer: 40 µM (≈ 14.1 µg/mL)

Question: And the clearance [21]?
Answer: 17 mL/min/kg

Question: And the half-life [22]?
Answer: 5 h

Question: And the Cmax [23]?
Answer: 51 µM

Question: What about the Ratio IC50 (Homo sapiens [6]) of the same compound?
Answer: 3

Question: Which IC50 [2] does the source give for `Cc1ccc(Cl)cc1-n1cc(-c2ncnn3cccc23)cc1C(N)=O` here?
Answer: 1.92 µM
